Drawing on patent US11866429B2, “Heteroaryl-biphenyl amines for the treatment of PD-L1 diseases” (CHEMOCENTRYX, INC., priority 2019, dated 2024), this text covers IC50 for 26 molecules.

Sequence of human PD-L1 (Q9NZQ7 19-239): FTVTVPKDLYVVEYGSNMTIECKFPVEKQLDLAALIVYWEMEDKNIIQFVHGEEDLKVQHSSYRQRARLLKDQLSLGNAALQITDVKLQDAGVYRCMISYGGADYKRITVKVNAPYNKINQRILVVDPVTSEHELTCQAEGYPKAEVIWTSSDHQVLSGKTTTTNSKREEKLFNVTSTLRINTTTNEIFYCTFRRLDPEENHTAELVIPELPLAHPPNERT

The assay addresses human PD-L1 (Homo sapiens (Human), UniProt Q9NZQ7). Nature of the assay: Enzyme-Linked Immunosorbent Assay (ELISA), PD-1/PD-L1 binding. Particulars: plates coated with human PD-L1; Human PD-1 and biotin added; absorbance at 450 nm. On the procedure:
96 Well plates were coated with 1 μg/mL of human PD-L1 (obtained from R&D) in PBS overnight at 4° C. The wells were then blocked with 2% BSA in PBS (W/V) with 0.05% TWEEN-20 for 1 hour at 37° C. The plates were washed 3 times with PBS/0.05% TWEEN-20 and the compounds were serial diluted (1:5) in dilution medium and added to the ELISA plates. Human PD-1 and biotin 0.3 μg/mL (ACRO Biosystems) were added and incubated for 1 hour at 37° C. then washed 3 times with PBS/0.05% TWEEN-20. A second block was performed with 2% BSA in PBS (W/V)/0.05% TWEEN-20 for 10 min at 37° C. and the plates were washed 3 times with PBS/0.05% TWEEN-20. Streptavidin-HRP was added for 1 hour at 37° C. then the plates were washed 3 times with PBS/0.05% TWEEN-20. TMB substrate was added and reacted for 20 min at 37° C. A stop solution (2 N aqueous […]) was added. The absorbance was read at 450 nm using a micro-plate spectrophotometer.
For orientation: IC50 means the point on the concentration scale where inhibition reaches its midpoint. Low values mean higher potency, high ones lower potency. `COc1nc(-c2cccc(-c3cccc(Nc4nc(C)nc5cccnc45)c3C)c2Cl)ccc1CN[C@H]1CCOC1` [Compound 1.059]: the half-inhibitory concentration (IC50) was less than 10 nM.
`COc1nc(-c2cccc(-c3cccc(Nc4nc(C)nc5cccnc45)c3C)c2Cl)ccc1CNCC(C)(C)C(=O)O` [Compound 1.060] returned an IC50 of less than 10 nM.
For the molecule `COc1nc(-c2cccc(-c3cccc(Nc4nc(C)nc5cccnc45)c3C)c2Cl)ccc1CNCC(C)(C)O` [Compound 1.061], the IC50 is less than 10 nM.
With `COc1nc(-c2cccc(-c3cccc(Nc4nc(C)nc5cccnc45)c3C)c2Cl)ccc1CNC(CO)(CO)CO` [Compound 1.062], the half-maximal inhibitory concentration (IC50) was less than 10 nM.
With `COc1nc(-c2cccc(-c3cccc(Nc4nc(C)nc5cccnc45)c3C)c2Cl)ccc1CN1CCC(C)(O)CC1` [Compound 1.063], the IC50 is less than 10 nM.
`COc1nc(-c2cccc(-c3cccc(Nc4nc(C)nc5cccnc45)c3C)c2Cl)ccc1CN[C@@H]1CCOC[C@@H]1O` [Compound 1.064] came in with an IC50 of less than 10 nM.
In the case of `COc1nc(-c2cccc(-c3cccc(Nc4nc(C)nc5cccnc45)c3C)c2Cl)ccc1CN1CC(C)(C(=O)O)C1` [Compound 1.065], the IC50 is less than 10 nM.
In the case of `COc1nc(-c2cccc(-c3cccc(Nc4nc(C)nc5cccnc45)c3C)c2Cl)ccc1CN1CC(C(=O)O)C1` [Compound 1.066], the IC50 was less than 10 nM.
Molecule `Cc1cc2nccnc2c(Nc2cccc(-c3cccc(-c4ccc(CNC[C@@H]5CCC(=O)N5)c(O)n4)c3Cl)c2C)n1` [Compound 1.067] gave an IC50 of 10 to 1000 nM.
As for `COc1nc(-c2cccc(-c3cccc(Nc4nc(C(C)C)nc5cccnc45)c3C)c2Cl)ccc1CNC[C@@H]1CCC(=O)N1` [Compound 1.068], the IC50 is less than 10 nM.
In turn, `COc1nc(-c2cccc(-c3cccc(Nc4nc(C(F)(F)F)nc5cccnc45)c3C)c2Cl)ccc1CN1CC(C)(C(=O)O)C1` [Compound 1.069] gave an IC50 of less than 10 nM.
With `COc1nc(-c2cccc(-c3cccc(Nc4nc(C(F)(F)F)nc5cccnc45)c3C)c2Cl)ccc1CNC[C@@H]1CCC(=O)N1` [Compound 1.070], the IC50 was less than 10 nM.
`COc1nc(-c2cccc(-c3cccc(Nc4ncnc5cccnc45)c3Cl)c2Cl)ccc1CNC[C@@H]1CCC(=O)N1` [Compound 1.071]: the IC50 was less than 10 nM.
Under `COc1nc(-c2cccc(-c3cccc(Nc4nc(C)nc5cccnc45)c3Cl)c2Cl)ccc1CN1CC(C)(C(=O)O)C1` [Compound 1.072] stands less than 10 nM; under `COc1nc(-c2cccc(-c3cccc(Nc4nc(C)nc5cccnc45)c3C)c2Cl)ccc1CNC[C@@H]1CCC(=O)N1` [Compound 1.073], less than 10 nM; under `COc1nc(-c2cccc(-c3cccc(Nc4nc(C)nc5cccnc45)c3Cl)c2Cl)ccc1CNC[C@@H]1CCC(=O)N1` [Compound 1.074], less than 10 nM.
Under `COc1nc(-c2cccc(-c3cccc(Nc4nccc5nccnc45)c3C)c2Cl)ccc1CN[C@@H]1CCOC[C@@H]1O` [Compound 1.075] stands less than 10 nM.
With `COc1nc(-c2cccc(-c3cccc(Nc4nccc5nccnc45)c3C)c2Cl)ccc1CN1CC(C(=O)O)C1` [Compound 1.076], the half-inhibitory concentration (IC50) was less than 10 nM.
With `COc1nc(-c2cccc(-c3cccc(Nc4nccc5nccnc45)c3C)c2Cl)ccc1CN1CC(O)C1` [Compound 1.077], the IC50 is less than 10 nM.
In turn, `COc1nc(-c2cccc(-c3cccc(Nc4nccc5nccnc45)c3C)c2Cl)ccc1CNC[C@@H]1CCC(=O)N1` [Compound 1.078] came in with a concentration for half-maximal inhibition (IC50) of less than 10 nM.
On to `COc1nc(-c2cccc(-c3cccc(Nc4nccc5nccnc45)c3Cl)c2Cl)ccc1CN1CC(O)C1` [Compound 1.079], for which the IC50 is less than 10 nM.
For the molecule `CCc1nc(-c2cccc(-c3cccc(Nc4nccc5nccnc45)c3Cl)c2Cl)cnc1CNC[C@@H]1CCC(=O)N1` [Compound 1.080], the IC50 is less than 10 nM.
As for `COc1nc(-c2cccc(-c3cccc(Nc4nccc5nccnc45)c3Cl)c2Cl)ccc1CN[C@@H]1CNC(=O)C1` [Compound 1.081], the 50% inhibitory concentration (IC50) was less than 10 nM.
Under `COc1nc(-c2cccc(-c3cccc(Nc4nccc5nccnc45)c3Cl)c2Cl)ccc1CN1CC(C(=O)O)C1` [Compound 1.082] stands less than 10 nM; under `COc1nc(-c2cccc(-c3cccc(Nc4nccc5nccnc45)c3Cl)c2Cl)ccc1CN1CC(C)(C(=O)O)C1` [Compound 1.083], less than 10 nM.
As to `COc1nc(-c2cccc(-c3cccc(Nc4nccc5nccnc45)c3Cl)c2Cl)ccc1CNC[C@@H]1CCC(=O)N1` [Compound 1.084], the IC50 is less than 10 nM.
